Test system: blood clots
Assay: in vitro clot lysis assay (release of solubilized 125I-fibrin-derived fragments, lysis initiated by TPA)
Procedure: In the assay, whole blood or plasma is charged with ^125 I-fibrinogen. Thrombin is added to initiate clot formation and subsequently incubated for 2 hours to complete the cross-linking by endogenous Factor XIII. Factor XIIIa inhibitor is added prior to clot initiation or at various times during the 2-hour incubation. At the end of this period, the labelled clot is washed and lysis is initiated by exogenous tissue plasminogen activator (TPA). Exogenous plasminogen is employed in some experiments. Endogenous plasminogen is used for others. Clot dissolution as a function of time is monitored by the release of solubilized ^125 I-fibrin-derived fragments.
In FIGS. 1 and 2, the open symbols indicate absence of cerulenin and the closed symbols indicate the presence of 200 μM cerulenin at the time of clot formation. Clot lysis is conducted in buffer, pH 7.5; 5 ng/mL TPA represents approximate physiologic concentration. 50 to […] represents pharmacologic concentration range. […] FIG. 2 studies employed glu-plasminogen levels at approximately 10 percent physiologic level (12 μ/mL).

C/C=C/C/C=C/CCC(=O)[C@H]1O[C@H]1C(N)=O [Cerulenin, 3-(1-oxo-4,7-nonadienyl)-oxiranecarboxamide]
rates and extents of clot lysis (200 μM cerulenin at clot formation, no exogenous plasminogen, TPA at physiological and pharmacological levels, buffer pH 7.5 (FIG. 1)): enhanced rates and extents of lysis
rate of TPA catalyzed clot lysis (200 μM cerulenin, 12 μg/mL exogenous glu-plasminogen, TPA, buffer pH 7.5 (FIG. 2)): lysis rates were further enhanced

— patent US5188830A, “Methods for thrombolytic therapy” (Merck & Co., Inc., priority 1990, dated 1993)
